Data: US20220202905A1, “COMPOSITION FOR PREVENTING OR TREATING NEUROTROPHIC KERATITIS WHICH CONTAINS PACAP PEPTIDE OR STABILIZED PACAP PEPTIDE” (SENJU PHARMACEUTICAL CO., LTD., priority 2019, published 2022)
Square brackets hold non-standard residues; d marks the D form. Peptide text beside a SMILES is read from it. Ala(1H-tetrazol-5-yl) = N[C@@H](Cc1nnn[nH]1)C(=O)O

How the values were obtained:
[1] = system: neurotrophic keratitis rat model; experiment: Superficial punctate keratitis (SPK) score in neurotrophic keratitis rat model; type: in vivo; details: 0.1% eye drops 3 times daily, evaluated 2 weeks after start of eye dropping; FIG. 4
Experimental: (§1) A rat model was prepared, by subcutaneous administration of capsaicin in the dorsal region of rats, which elicited corneal nerve injury and attenuated corneal sensation while also leading to decreased lacrimal fluid volume and superficial punctate keratitis (SPK) (NPL 3: Investigative Ophthalmology & Visual Science (2012), vol. 53, No. 13, p. 8280-8287). The rats were given PACAP27 and its stabilized peptide eye drops, and the inhibiting effect on corneal damage was examined. The specific experiment method was as follows.
Capsaicin (product of Sigma) was dissolved in PBS containing 10% EtOH and 10% Tween80, and subcutaneously administered to the dorsal region of 4-day-old male Wistar/ST rats at a dose of 50 mg/kg·b·w. […]
SPK was evaluated 2 weeks after the start of eye dropping. […] The eye surface was then observed with a slit lamp microscope, and the degree of corneal damage was evaluated by the method of Murakami et al., Atarashii Ganka 21 (1):87-90 (2004). Specifically, the cornea was divided into 3 regions, the top, center and bottom, and a score was assigned to each region on the following scale, with the value of the total of the scores of the 3 regions being recorded as the SPK score. <Scale> 0: No punctate stains, 1: Sparse (separated punctate fluorescein stains), 2: Intermediate (between 1 and 3), 3: Dense (almost all punctate fluorescein stains adjacent).

[2] = system: neurotrophic keratitis rat model; experiment: Corneal sensation (Cochet-Bonnet) in neurotrophic keratitis rat model; type: in vivo; details: 0.1% eye drops, capsaicin-treated rats; method and result in present tense
Experimental: as §1
(§2) Capsaicin (product of Sigma) was dissolved in PBS containing 10% EtOH and 10% Tween80, and subcutaneously administered to the dorsal region of 4-day-old male Wistar/ST rats at a dose of 50 mg/kg·b·w.
The base was prepared by dissolving 0.3 g of trishydroxymethylaminomethane (Nacalai Tesque, Inc.) and 4.4 g of D(−)-mannitol (Nacalai Tesque, Inc.) in 100 mL of sterilized water, adding 1 N·HCl and adjusting the pH to 7. […] Each eye drops was stored at room temperature. Each eye drop was initially administered 3 weeks after administration of capsaicin, 3 times every day, in an amount of 10 μL for each eye.
Corneal sensation is measured using a Cochet-Bonnet corneal sensory meter (Handaya Shoten). […] This procedure is repeated 3 times, and the average value for the obtained filament lengths is recorded as the corneal sensation threshold (CST) for that individual.

[3] = system: neurotrophic keratitis rat model; experiment: Corneal nerve staining, nerve density in neurotrophic keratitis rat model; type: in vivo; details: 0.1% eye drops, capsaicin-treated rats; method and result in present tense
Experimental: as §1, §2
The base was prepared by dissolving 0.3 g of trishydroxymethylaminomethane (Nacalai Tesque, Inc.) and 4.4 g of D(−)-mannitol (Nacalai Tesque, Inc.) in 100 mL of sterilized water, adding 1 N·HCl and adjusting the pH to 7. […] Each eye drops was stored at room temperature. […]
After euthanizing rats, the eye bulbs are extracted and immersed in Zamboni solution (product of Wako Pure Chemical Industries, Ltd.), and allowed to stand for 15 minutes at room temperature. […] The nerve density of the swirl structure in the nerve layer is quantified by conducting Sholl analysis using image analysis software (Image J).

[4] = system: rat trigeminal nerve cells; experiment: Axon elongation effect on cultured rat trigeminal nerve cells; type: cell-based; details: 1 μM peptide, 24 hours; N=8; Dunnett's test vs control P<0.001; FIG. 5
Experimental: Rats (Sic: Sprague-Dawley, 17-day-old, including female and male) purchased from Japan SLC, Inc. were euthanized by carbon dioxide gas inhalation and the trigeminal ganglion was harvested. The harvested trigeminal ganglion was washed with Hanks' balanced salt solution (HBSS) and then treated with collagenase A (Roche) for 30 minutes at 37° C. A neuron dispersion (Wako) was then used according to protocol for dispersion of the cells. Debris removal solution (Miltenyi biotec) and Myelin removal beads II (Miltenyi biotec) were used according to protocol to remove the debris and myelin. After suspending the isolated trigeminal nerve cells in culture solution, they were seeded onto a polylysine/laminin-coated 8-well chamber slide (Corning) at 2.5×10^3 cells/well. The culture solution used was Neurobasal-A containing B27 supplement (final concentration: 2%) and GlutaMAX (final concentration: 2 mM) and penicillin/streptomycin (final concentration: 1%). The culturing conditions were a carbon dioxide concentration of 5%, an air concentration of 95%, a humidity of 100% and a temperature of 37° C. […] The control was replaced with peptide-free culture solution. Culture medium replacement was followed by further culturing for 24 hours.
The culture medium was replaced with peptide-containing culture solution, and the rat trigeminal nerve cells cultured for 24 hours were immersed in a 2% paraformaldehyde solution at room temperature for 20 minutes for fixing. The cells were washed with PBS, and then 2% bovine serum albumin containing 0.1% TritonX-100 was added and reaction was conducted for 30 minutes. After washing with PBS, it was reacted with phospho-neurofilament H antibody (Merck, MAB1592-C) specifically recognizing neurofilaments forming the neuron bodies and neurites, for 1 hour at room temperature. After reaction for 1 hour, a fluorescent-labeled secondary antibody (Invitrogen Corp., #A-11031) was reacted at room temperature for 1 hour for fluorescent staining of the sample, and the stained cells were observed under a fluorescent microscope. The stained cell image was captured as an image from the fluorescent microscope and loaded into a computer.
In order to evaluate the extent of neurite formation by the rat trigeminal nerve cells, cells with neurites having lengths of at least twice the cell body diameter in the stained cell image in the computer were counted as neurite-forming cells, and the percentage (%) of this number of cells over the total cell count was calculated (Otori Y. Wei J Y, Barnstable C J. Invest. Ophthalmol Vis Sci (1998) 39, 972-981). The significant difference with respect to the control was determined by Dunnett's test (P<0.001).

| SMILES | SPK score [1] | corneal sensation threshold (CST) [2] | corneal nerve density (Sholl analysis) [3] | axon elongation (percentage of neurite-forming cells) [4] |
| --- | --- | --- | --- | --- |
| CC[C@H](C)[C@H](NC(=O)CNC(=O)[C@H](CC(=O)O)NC(=O)[C@H](CO)NC(=O)[C@@H](N)Cc1cnc[nH]1)C(=O)N[C@@H](Cc1ccccc1)C(=O)N[C@H](C(=O)N[C@@H](CC(=O)O)C(=O)N[C@@H](CO)C(=O)N[C@@H](Cc1ccc(O)cc1)C(=O)N[C@@H](CO)C(=O)N[C@@H](CCCNC(=N)N)C(=O)N[C@@H](Cc1ccc(O)cc1)C(=O)N[C@@H](CCCNC(=N)N)C(=O)N[C@@H](CCCCN)C(=O)N[C@@H](CCC(N)=O)C(=O)N[C@@H](CCSC)C(=O)N[C@@H](C)C(=O)N[C@H](C(=O)N[C@@H](CCCCN)C(=O)N[C@@H](CCCCN)C(=O)N[C@@H](Cc1ccc(O)cc1)C(=O)N[C@@H](CC(C)C)C(=O)N[C@@H](C)C(=O)N[C@@H](C)C(=O)N[C@H](C(=O)N[C@@H](CC(C)C)C(N)=O)C(C)C)C(C)C)[C@@H](C)O [Peptide 1, reference compound] | improved the increased SPK score | improves reduction in corneal sensation | improves reduction in nerve density | exhibited axon elongation-promoting effects |
| CC[C@H](C)[C@H](NC(=O)CNC(=O)[C@H](Cc1nnn[nH]1)NC(=O)[C@H](CO)NC(=O)[C@H](Cc1c[nH]cn1)NC(C)=O)C(=O)N[C@@H](Cc1ccccc1)C(=O)N[C@H](C(=O)N[C@@H](Cc1nnn[nH]1)C(=O)N[C@@H](CO)C(=O)N[C@@H](Cc1ccc(O)cc1)C(=O)N[C@@H](CO)C(=O)N[C@@H](CCCNC(=N)N)C(=O)N[C@@H](Cc1ccc(O)cc1)C(=O)N[C@@H](CCCNC(=N)N)C(=O)N[C@@H](CCCCN)C(=O)N[C@@H](CCC(N)=O)C(=O)N[C@@H](CC(C)C)C(=O)N[C@@H](C)C(=O)N[C@H](C(=O)N[C@@H](CCCCN)C(=O)N[C@@H](CCCCN)C(=O)N[C@@H](Cc1ccc(O)cc1)C(=O)N[C@@H](CC(C)C)C(=O)N[C@@H](C)C(=O)N[C@@H](C)C(=O)N[C@H](C(=O)N[C@@H](CC(C)C)C(N)=O)C(C)C)C(C)C)[C@@H](C)O [Peptide 9] (Ac-HS[Ala(1H-tetrazol-5-yl)]GIFT[Ala(1H-tetrazol-5-yl)]SYSRYRKQLAVKKYLAAVL-NH2) | improved the increased SPK score | improves reduction in corneal sensation | improves reduction in nerve density | exhibited axon elongation-promoting effects |
